According to ChEMBL document CHEMBL1201862, “PubChem BioAssay data set” (2004):
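Protocol summary: plate cells (96-well), add compound at 5 concentrations, incubate 48 h, interpolate endpoints linearly. The concentration for 50% growth inhibition is given as GI50.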 Calls of active or inactive are those of the source. Cut-off read from the data, not from the text of the source: active = GI50 up to about 1.1 µM and inactive = higher.

What was measured:
Assay in all cases: inhibition of tumour cell growth, NCI panel, 48 h
[1] = test system: 786-0
[2] = test system: A498
[3] = test system: A549
[4] = test system: ACHN
[5] = test system: CAKI-1
[6] = test system: CCRF-CEM
[7] = test system: COLO 205
[8] = test system: DLD-1
[9] = test system: DMS-114
[10] = test system: DMS-273
[11] = test system: HCC 2998
[12] = test system: HCT-116
[13] = test system: HCT-15
[14] = test system: HL-60
[15] = test system: HOP-18
[16] = test system: HOP-62
[17] = test system: HOP-92
[18] = test system: HT-29
[19] = test system: IGROV-1
[20] = test system: K562
[21] = test system: KM-20L2
[22] = test system: KM12
[23] = test system: LOX IMVI
[24] = test system: LXFL 529
[25] = test system: M14
[26] = test system: M19-MEL
[27] = test system: MOLT-4
[28] = test system: Malme-3M
[29] = test system: NCI-H23
[30] = test system: NCI-H460
[31] = test system: NCI-H522
[32] = test system: OVCAR-3
[33] = test system: OVCAR-4
[34] = test system: OVCAR-5
[35] = test system: OVCAR-8
[36] = test system: RPMI-8226
[37] = test system: RXF 393
[38] = test system: SF-268
[39] = test system: SF-295
[40] = test system: SF-539
[41] = test system: SK-MEL-28
[42] = test system: SK-MEL-2
[43] = test system: SK-MEL-5
[44] = test system: SK-OV-3
[45] = test system: SN12C
[46] = test system: SNB-19
[47] = test system: SNB-75
[48] = test system: SR
[49] = test system: SW-620
[50] = test system: TK-10
[51] = test system: U-251
[52] = test system: UACC-62
[53] = test system: UO-31
[54] = test system: BT-549
[55] = test system: DU-145
[56] = test system: EKVX
[57] = test system: Hs-578T
[58] = test system: MCF7
[59] = test system: MDA-MB-231
[60] = test system: MDA-MB-435
[61] = test system: MDA-N
[62] = test system: NCI-H226
[63] = test system: NCI/ADR-RES
[64] = test system: PC-3
[65] = test system: T47D
[66] = test system: UACC-257

## Cc1nc2cc(Nc3ccccc3C(=O)O)ccc2s1
[1]
  GI50: > 100 µM (inactive)
[2]
  GI50: > 100 µM (inactive)
[3]
  GI50: > 100 µM (inactive)
[4]
  GI50: > 100 µM (inactive)
[5]
  GI50: > 100 µM (inactive)
[6]
  GI50: > 100 µM (inactive)
[7]
  GI50: > 100 µM (inactive)
[8]
  GI50: > 100 µM (inactive)
[9]
  GI50: > 100 µM (inactive)
[10]
  GI50: > 100 µM (inactive)
[11]
  GI50: > 100 µM (inactive)
[12]
  GI50: 90.8 µM (inactive)
[13]
  GI50: 63.1 µM
[14]
  GI50: > 100 µM (inactive)
[15]
  GI50: 88.9 µM (inactive)
[16]
  GI50: > 100 µM (inactive)
[17]
  GI50: > 100 µM (inactive)
[18]
  GI50: > 100 µM (inactive)
[19]
  GI50: > 100 µM (inactive)
[20]
  GI50: > 100 µM (inactive)
[21]
  GI50: > 100 µM (inactive)
[22]
  GI50: > 100 µM (inactive)
[23]
  GI50: > 100 µM (inactive)
[24]
  GI50: > 100 µM (inactive)
[25]
  GI50: > 100 µM (inactive)
[26]
  GI50: > 100 µM (inactive)
[27]
  GI50: > 100 µM (inactive)
[28]
  GI50: > 100 µM (inactive)
[29]
  GI50: > 100 µM (inactive)
[30]
  GI50: > 100 µM (inactive)
[31]
  GI50: 75 µM (inactive)
[32]
  GI50: > 100 µM (inactive)
[33]
  GI50: > 100 µM (inactive)
[34]
  GI50: > 100 µM (inactive)
[35]
  GI50: > 100 µM (inactive)
[36]
  GI50: > 100 µM (inactive)
[37]
  GI50: > 100 µM (inactive)
[38]
  GI50: > 100 µM (inactive)
[39]
  GI50: > 100 µM (inactive)
[40]
  GI50: > 100 µM (inactive)
[41]
  GI50: > 100 µM (inactive)
[42]
  GI50: > 100 µM (inactive)
[43]
  GI50: > 100 µM (inactive)
[44]
  GI50: > 100 µM (inactive)
[45]
  GI50: 63.4 µM (inactive)
[46]
  GI50: > 100 µM (inactive)
[47]
  GI50: > 100 µM (inactive)
[48]
  GI50: > 100 µM (inactive)
[49]
  GI50: > 100 µM (inactive)
[50]
  GI50: > 100 µM (inactive)
[51]
  GI50: > 100 µM (inactive)
[52]
  GI50: > 100 µM (inactive)
[53]
  GI50: 34 µM (inactive)

## O=S(=O)(c1cccc(C(F)(F)F)c1)N1c2ccccc2-n2cccc2C1c1cccnc1 (configuration not stated)
[1]
  GI50: > 40.6 µM (inactive)
[2]
  GI50: 23.3 µM (inactive)
[3]
  GI50: 17.3 µM (inactive)
[4]
  GI50: > 46.5 µM (inactive)
[54]
  GI50: 9.29 µM (inactive)
[5]
  GI50: > 100 µM (inactive)
[6]
  GI50: 8.75 µM (inactive)
[7]
  GI50: 16.5 µM (inactive)
[55]
  GI50: > 39.7 µM (inactive)
[56]
  GI50: > 100 µM (inactive)
[11]
  GI50: 24.7 µM (inactive)
[12]
  GI50: 18.8 µM (inactive)
[13]
  GI50: 22 µM
[14]
  GI50: 1.1 µM (active)
[16]
  GI50: > 43.6 µM (inactive)
[17]
  GI50: 26.9 µM (inactive)
[18]
  GI50: 18.1 µM (inactive)
[57]
  GI50: > 47 µM (inactive)
[19]
  GI50: 40.6 µM (inactive)
[20]
  GI50: 9.12 µM (inactive)
[22]
  GI50: 19.2 µM (inactive)
[23]
  GI50: 35.5 µM (inactive)
[25]
  GI50: 16.2 µM (inactive)
[58]
  GI50: 13.9 µM (inactive)
[59]
  GI50: > 36.8 µM (inactive)
[60]
  GI50: 6.3 µM (inactive)
[61]
  GI50: 26.9 µM (inactive)
[27]
  GI50: 4.18 µM (inactive)
[28]
  GI50: 21.4 µM (inactive)
[62]
  GI50: > 28.1 µM (inactive)
[29]
  GI50: 8.49 µM (inactive)
[30]
  GI50: 22.9 µM (inactive)
[31]
  GI50: 15.4 µM (inactive)
[63]
  GI50: 5.19 µM (inactive)
[32]
  GI50: > 35.8 µM (inactive)
[33]
  GI50: 24.8 µM (inactive)
[34]
  GI50: > 50.5 µM (inactive)
[35]
  GI50: 44.3 µM (inactive)
[64]
  GI50: 10.7 µM (inactive)
[36]
  GI50: 6.17 µM (inactive)
[37]
  GI50: > 38.7 µM (inactive)
[38]
  GI50: > 43.2 µM (inactive)
[39]
  GI50: 71.8 µM (inactive)
[40]
  GI50: 28 µM (inactive)
[41]
  GI50: 29.4 µM (inactive)
[42]
  GI50: 17.7 µM (inactive)
[43]
  GI50: 8.09 µM (inactive)
[44]
  GI50: > 46.9 µM (inactive)
[45]
  GI50: > 42.4 µM (inactive)
[46]
  GI50: 32.6 µM (inactive)
[47]
  GI50: 61.9 µM (inactive)
[48]
  GI50: 6.71 µM (inactive)
[49]
  GI50: 16.5 µM (inactive)
[65]
  GI50: 7.03 µM (inactive)
[50]
  GI50: > 53.8 µM (inactive)
[51]
  GI50: 23.9 µM (inactive)
[66]
  GI50: > 36.4 µM (inactive)
[52]
  GI50: 13.9 µM (inactive)
[53]
  GI50: 17.7 µM (inactive)
